In brackets after ≈: the same amount, converted by molar mass. Activity calls are given as the source filed them. The calls are words filed in the database; no cut-off is given here.
Experiments:
[1] = Clearance in Sprague-Dawley rat at 1 mg/kg, iv and 5 mg/kg, po; assay type: ADME, organism-based; settings: in vivo
Histamine H3 receptor [2] = target: Histamine H3 receptor (Rattus norvegicus, UniProt Q9QYN8); assay: Displacement of [3H]NAMH from rat cloned […] expressed in CHO cells; assay type: cell-based
Sequence of Histamine H3 receptor (Rattus norvegicus, UniProt Q9QYN8) (Q9QYN8 whole entry): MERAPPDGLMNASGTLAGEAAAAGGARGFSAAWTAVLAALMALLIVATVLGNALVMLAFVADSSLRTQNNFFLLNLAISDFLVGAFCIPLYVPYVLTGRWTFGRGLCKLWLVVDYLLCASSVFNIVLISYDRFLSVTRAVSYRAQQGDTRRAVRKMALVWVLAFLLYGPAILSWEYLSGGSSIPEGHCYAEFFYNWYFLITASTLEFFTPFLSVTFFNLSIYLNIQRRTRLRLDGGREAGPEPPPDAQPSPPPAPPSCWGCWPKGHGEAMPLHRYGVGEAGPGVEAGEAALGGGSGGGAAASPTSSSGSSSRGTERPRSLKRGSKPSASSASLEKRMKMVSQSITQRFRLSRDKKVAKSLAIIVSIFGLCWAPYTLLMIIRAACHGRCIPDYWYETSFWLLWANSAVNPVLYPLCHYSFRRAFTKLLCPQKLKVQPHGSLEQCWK

[3] = Oral bioavailability in Sprague-Dawley rat at 5 mg/kg; assay type: ADME, organism-based; settings: in vivo
Histamine H3 receptor [4] = target: Histamine H3 receptor (Homo sapiens, UniProt Q9Y5N1); assay: Displacement of [3H]NAMH from human cloned […] expressed in CHO cells; assay type: cell-based
Sequence of Histamine H3 receptor (Homo sapiens, UniProt Q9Y5N1) (Q9Y5N1 whole entry): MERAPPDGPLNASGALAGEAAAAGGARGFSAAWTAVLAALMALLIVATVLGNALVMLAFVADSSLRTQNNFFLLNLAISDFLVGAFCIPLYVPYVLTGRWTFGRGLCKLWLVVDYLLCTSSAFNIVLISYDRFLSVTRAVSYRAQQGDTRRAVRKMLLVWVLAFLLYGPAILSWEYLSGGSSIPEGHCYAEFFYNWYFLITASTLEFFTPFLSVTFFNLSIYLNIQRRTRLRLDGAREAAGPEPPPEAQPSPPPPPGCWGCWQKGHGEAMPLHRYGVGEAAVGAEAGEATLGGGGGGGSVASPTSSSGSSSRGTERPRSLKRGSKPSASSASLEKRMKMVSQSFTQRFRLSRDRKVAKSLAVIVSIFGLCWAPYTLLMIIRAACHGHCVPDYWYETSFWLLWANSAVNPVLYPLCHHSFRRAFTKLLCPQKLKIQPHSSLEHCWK

[5] = Half life in Sprague-Dawley rat at 1 mg/kg, iv and 5 mg/kg, po; assay type: ADME, organism-based; settings: in vivo
[6] = Ratio of drug level in brain to plasma in Sprague-Dawley rat at 10 mg/kg, ip after 1 hr; assay type: ADME, organism-based; parameters: dose 10 mg/kg, route intraperitoneal; settings: brain and plasma, read-out: BPR
[7] = Cmax in Sprague-Dawley rat at 1 mg/kg, iv and 10 mg/kg, po; assay type: ADME, organism-based; settings: in vivo
Rattus norvegicus [8] = assay: Cognitive effect in Sprague-Dawley rat social recognition model assessed as enhancement of short-term memory at 0.01 to 0.1 mg/kg, po measured after 120 mins; assay type: functional, organism-based
[9] = Plasma protein binding in Beagle dog; assay type: ADME, cell-free, Canis lupus familiaris; settings: read-out: PPB (converted)
[10] = Oral bioavailability in Sprague-Dawley rat at 10 mg/kg; assay type: ADME, organism-based; settings: in vivo
Cytochrome P450 3A4 = Cytochrome P450 3A4 (Homo sapiens, UniProt P08684); assay: Inhibition of CYP3A4; assay type: ADME
Sequence of Cytochrome P450 3A4 (P08684 whole entry): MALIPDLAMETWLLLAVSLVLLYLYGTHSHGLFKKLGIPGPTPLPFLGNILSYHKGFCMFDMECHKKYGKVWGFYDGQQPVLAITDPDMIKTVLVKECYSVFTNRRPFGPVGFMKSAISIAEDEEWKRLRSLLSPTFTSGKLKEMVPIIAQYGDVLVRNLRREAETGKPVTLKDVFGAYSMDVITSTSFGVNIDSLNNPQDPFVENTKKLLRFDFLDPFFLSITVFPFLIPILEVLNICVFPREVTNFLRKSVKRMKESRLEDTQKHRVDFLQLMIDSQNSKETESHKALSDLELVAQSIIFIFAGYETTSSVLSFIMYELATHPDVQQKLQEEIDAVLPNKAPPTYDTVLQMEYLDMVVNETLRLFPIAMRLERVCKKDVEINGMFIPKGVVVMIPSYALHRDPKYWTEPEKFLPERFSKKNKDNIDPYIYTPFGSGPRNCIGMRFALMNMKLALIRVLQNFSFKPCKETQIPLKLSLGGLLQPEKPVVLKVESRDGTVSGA

[11] = Half life in cynomolgus monkey at 1 mg/kg, iv and 3 mg/kg, po; assay type: ADME, organism-based, Macaca fascicularis; settings: in vivo
[12] = AUC in cynomolgus monkey at 3 mg/kg, po; assay type: ADME, organism-based, Macaca fascicularis; parameters: dose 3 mg/kg, route oral; settings: plasma
Rattus norvegicus [13] = assay: Inhibition of RAMH-induced dispogenia in po dosed Long Evans rat measured for 30 mins; assay type: functional
[14] = Volume of distribution in Beagle dog at 1 mg/kg, iv and 3 mg/kg, po; assay type: ADME, organism-based, Canis lupus familiaris; settings: in vivo
[15] = Plasma protein binding in human; assay type: ADME, cell-free; settings: read-out: PPB (converted)
[16] = Apparent permeability in human Caco2 cells; assay type: ADME, cell-based; settings: Caco-2
[17] = AUC in Sprague-Dawley rat at 10 mg/kg, po; assay type: ADME, organism-based; parameters: dose 10 mg/kg, route oral; settings: plasma
[18] = Half life in cynomolgus monkey at 1 mg/kg, iv; assay type: ADME, organism-based, Macaca fascicularis; parameters: dose 1 mg/kg, route intravenous; settings: in vivo
[19] = Clearance in Sprague-Dawley rat at 1 mg/kg, iv and 10 mg/kg, po; assay type: ADME, organism-based; settings: in vivo
Cytochrome P450 2C9 = Cytochrome P450 2C9 (Homo sapiens, UniProt P11712); assay: Inhibition of CYP2C9; assay type: ADME
Sequence of Cytochrome P450 2C9 (P11712 whole entry): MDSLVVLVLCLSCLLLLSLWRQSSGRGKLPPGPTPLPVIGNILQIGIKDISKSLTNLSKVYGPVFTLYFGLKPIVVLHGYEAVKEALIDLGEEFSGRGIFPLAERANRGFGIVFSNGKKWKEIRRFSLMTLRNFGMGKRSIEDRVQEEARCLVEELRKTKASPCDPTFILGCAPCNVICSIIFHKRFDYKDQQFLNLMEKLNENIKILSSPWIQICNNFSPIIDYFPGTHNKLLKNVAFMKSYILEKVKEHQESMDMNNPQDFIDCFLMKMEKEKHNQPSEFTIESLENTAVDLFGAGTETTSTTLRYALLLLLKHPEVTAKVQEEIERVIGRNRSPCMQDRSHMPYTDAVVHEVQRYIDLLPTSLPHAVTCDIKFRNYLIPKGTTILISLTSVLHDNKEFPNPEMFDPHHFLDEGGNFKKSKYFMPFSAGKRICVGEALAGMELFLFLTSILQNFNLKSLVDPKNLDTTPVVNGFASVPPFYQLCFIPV

[20] = Clearance in cynomolgus monkey at 1 mg/kg, iv and 3 mg/kg, po; assay type: ADME, organism-based, Macaca fascicularis; settings: in vivo
Salmonella typhimurium = assay: Mutagenic activity in Salmonella Typhimurium by Ames test; assay type: toxicity, organism-based; settings: salmonella enterica subsp. enterica serovar typhimurium
[21] = Half life in Beagle dog at 1 mg/kg, iv and 3 mg/kg, po; assay type: ADME, organism-based, Canis lupus familiaris; settings: in vivo
[22] = Solubility of the compound in water at pH 7.4; assay type: physicochemical
[23] = Cmax in Beagle dog at 1 mg/kg, iv and 3 mg/kg, po; assay type: ADME, organism-based, Canis lupus familiaris; settings: in vivo
Cytochrome P450 1A2 = target: T1, Cytochrome P450 1A2 (Homo sapiens, UniProt P05177); assay: Inhibition of CYP1A2; assay type: ADME
T1 sequence (P05177 whole entry): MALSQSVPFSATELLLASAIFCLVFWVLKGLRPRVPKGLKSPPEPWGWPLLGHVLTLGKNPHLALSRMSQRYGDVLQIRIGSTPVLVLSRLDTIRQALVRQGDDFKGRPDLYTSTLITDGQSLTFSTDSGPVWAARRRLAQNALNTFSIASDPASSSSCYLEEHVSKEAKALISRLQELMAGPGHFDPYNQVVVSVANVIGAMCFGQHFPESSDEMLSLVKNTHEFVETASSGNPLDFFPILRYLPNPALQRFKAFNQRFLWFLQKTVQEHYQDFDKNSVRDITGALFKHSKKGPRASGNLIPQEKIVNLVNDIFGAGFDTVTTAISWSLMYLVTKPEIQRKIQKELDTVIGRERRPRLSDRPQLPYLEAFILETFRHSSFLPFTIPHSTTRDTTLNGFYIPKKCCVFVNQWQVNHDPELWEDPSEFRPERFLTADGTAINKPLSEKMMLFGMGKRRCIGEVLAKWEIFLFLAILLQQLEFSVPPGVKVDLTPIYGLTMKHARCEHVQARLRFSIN

Mus musculus = assay: Toxicity in mouse assessed as changes in behavioral and physiologic state up to 300 mg/kg, po by Irwin test; assay type: organism-based; parameters: dose 300 mg/kg, route oral; settings: in vivo
[24] = Fraction unbound in Sprague-Dawley rat brain homogenate; assay type: ADME, tissue-based
[25] = Half life in human; assay type: ADME, organism-based; settings: in vivo
[26] = Volume of distribution in Sprague-Dawley rat at 1 mg/kg, iv and 10 mg/kg, po; assay type: ADME, organism-based; settings: in vivo
Cytochrome P450 2D6 = Cytochrome P450 2D6 (Homo sapiens, UniProt P10635); assay: Inhibition of CYP2D6; assay type: ADME
Sequence of Cytochrome P450 2D6 (P10635 whole entry): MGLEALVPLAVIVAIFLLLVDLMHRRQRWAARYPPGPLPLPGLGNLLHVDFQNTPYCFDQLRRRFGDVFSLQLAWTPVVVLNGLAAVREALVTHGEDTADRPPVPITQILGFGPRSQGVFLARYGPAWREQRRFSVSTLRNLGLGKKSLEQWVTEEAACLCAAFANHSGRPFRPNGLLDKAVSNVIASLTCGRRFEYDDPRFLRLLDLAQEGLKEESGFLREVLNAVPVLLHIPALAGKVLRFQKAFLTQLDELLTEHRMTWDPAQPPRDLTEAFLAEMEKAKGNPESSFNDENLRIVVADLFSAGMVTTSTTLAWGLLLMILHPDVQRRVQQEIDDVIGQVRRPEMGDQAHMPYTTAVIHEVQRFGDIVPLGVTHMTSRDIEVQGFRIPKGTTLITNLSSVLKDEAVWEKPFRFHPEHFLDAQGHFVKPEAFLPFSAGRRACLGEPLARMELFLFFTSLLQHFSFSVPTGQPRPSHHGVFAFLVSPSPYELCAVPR

[27] = Volume of distribution in cynomolgus monkey at 1 mg/kg, iv and 3 mg/kg, po; assay type: ADME, organism-based, Macaca fascicularis; settings: in vivo
[28] = Plasma protein binding in Sprague-Dawley rat; assay type: ADME, cell-free; settings: read-out: PPB (converted)
[29] = Clearance in Beagle dog at 1 mg/kg, iv and 3 mg/kg, po; assay type: ADME, organism-based, Canis lupus familiaris; settings: in vivo
Cytochrome P450 2C19 = Cytochrome P450 2C19 (Homo sapiens, UniProt P33261); assay: Inhibition of CYP2C19; assay type: ADME
Sequence of Cytochrome P450 2C19 (P33261 whole entry): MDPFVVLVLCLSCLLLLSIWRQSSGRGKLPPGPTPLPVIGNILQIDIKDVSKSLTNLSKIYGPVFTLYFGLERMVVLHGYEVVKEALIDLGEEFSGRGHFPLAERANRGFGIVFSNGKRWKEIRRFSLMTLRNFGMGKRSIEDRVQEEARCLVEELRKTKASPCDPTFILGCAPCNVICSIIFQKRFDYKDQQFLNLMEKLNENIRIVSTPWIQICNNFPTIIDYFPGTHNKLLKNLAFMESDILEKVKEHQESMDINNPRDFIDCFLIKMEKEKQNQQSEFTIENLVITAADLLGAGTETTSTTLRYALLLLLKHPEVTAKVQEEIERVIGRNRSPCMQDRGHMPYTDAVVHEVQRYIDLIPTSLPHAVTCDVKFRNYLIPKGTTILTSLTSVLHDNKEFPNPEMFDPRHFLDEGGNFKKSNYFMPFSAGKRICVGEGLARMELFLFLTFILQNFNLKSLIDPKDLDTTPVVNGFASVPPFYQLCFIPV

[30] = AUC in Beagle dog at 3 mg/kg, po; assay type: ADME, organism-based, Canis lupus familiaris; parameters: dose 3 mg/kg, route oral; settings: plasma
[31] = Cmax in cynomolgus monkey at 1 mg/kg, iv and 3 mg/kg, po; assay type: ADME, organism-based, Macaca fascicularis; settings: in vivo
[32] = Oral bioavailability in Beagle dog at 3 mg/kg; assay type: ADME, organism-based, Canis lupus familiaris; settings: in vivo
[33] = Half life in Sprague-Dawley rat at 1 mg/kg, iv and 10 mg/kg, po; assay type: ADME, organism-based; settings: in vivo
[34] = Half life in Sprague-Dawley rat at 1 mg/kg, iv; assay type: ADME, organism-based; parameters: dose 1 mg/kg, route intravenous; settings: in vivo
[35] = Solubility of the compound in water at pH 2; assay type: physicochemical
[36] = Oral bioavailability in cynomolgus monkey at 3 mg/kg; assay type: ADME, organism-based, Macaca fascicularis; settings: in vivo
[37] = Half life in Beagle dog at 1 mg/kg, iv; assay type: ADME, organism-based, Canis lupus familiaris; parameters: dose 1 mg/kg, route intravenous; settings: in vivo

Cn1ncc(-c2ccc(OCCCN3CCCCC3)cc2)cc1=O
clearance [1]: 75 mL/min/kg
Ki (Histamine H3 receptor [2]): 30 nM
bioavailability [3]: 40%
Ki (Histamine H3 receptor [4]): 13 nM
half-life [5]: 0.6 h
Kp at 1 h [6]: 5.3

C[C@@H]1CCCN1CCCOc1ccc(-c2cnn(-c3ccccn3)c(=O)c2)cc1
Cmax [7]: 898 ng/mL
clearance [1]: 19 mL/min/kg
Activity (Rattus norvegicus [8]): Active
fraction unbound [9]: 0.68
bioavailability [10]: 78%
IC50 (Cytochrome P450 3A4): > 30000 nM
half-life [11]: 6.5 h
AUC [12]: 2080 ng·h/mL
inhibition (Rattus norvegicus [13]): Dose-dependent effect
ED50 (Rattus norvegicus [13]; 0.5 h): 0.07 mg/kg
Vd [14]: 5.9 L/kg
fraction unbound [15]: 0.56
Papp [16]: 13.7 ×10⁻⁶ cm/s
AUC [17]: 6800 ng·h/mL
half-life [18]: 3.9 h
clearance [19]: 20 mL/min/kg
IC50 (Cytochrome P450 2C9): > 30000 nM
clearance [20]: 21 mL/min/kg
Activity (Salmonella typhimurium): Toxic
half-life [21]: 0.8 h
solubility [22]: 900 µg/mL (≈ 2300 µM)
Cmax [23]: 417 ng/mL
IC50 (Cytochrome P450 1A2): > 30000 nM
Activity (Mus musculus): Non-toxic
fraction unbound [24]: 0.39
half-life [25]: > 0.667 h
Vd [26]: 3 L/kg
half-life [5]: 1.7 h
IC50 (Cytochrome P450 2D6): > 30000 nM
Kp at 1 h [6]: 1.1
Vd [27]: 7.1 L/kg
fraction unbound [28]: 0.55
clearance [29]: 19 mL/min/kg
IC50 (Cytochrome P450 2C19): > 30000 nM
AUC [30]: 2400 ng·h/mL
Cmax [31]: 326 ng/mL
bioavailability [32]: 92%
half-life [33]: 4.5 h
half-life [34]: 1.7 h
solubility [35]: 1400 µg/mL (≈ 3590 µM)
bioavailability [36]: 96%
half-life [37]: 3.6 h

Cc1nn(C)c(=O)cc1-c1ccc(OCCCN2CCC[C@H]2C)cc1
clearance [1]: 67 mL/min/kg
Ki (Histamine H3 receptor [2]): 6.5 nM
bioavailability [3]: 53%
Ki (Histamine H3 receptor [4]): 2 nM
half-life [5]: 1.2 h
Kp at 1 h [6]: 1.7

Cc1nn(C)c(=O)cc1-c1ccc(OCCCN2CCCCC2)cc1
clearance [1]: 48 mL/min/kg
Ki (Histamine H3 receptor [2]): 18 nM
bioavailability [3]: 69%
Ki (Histamine H3 receptor [4]): 8.9 nM
half-life [5]: 1.6 h
Kp at 1 h [6]: 2.4

C[C@@H]1CCCN1CCCOc1ccc(-c2cn[nH]c(=O)c2)cc1
Kp at 1 h [6]: 1.8

O=c1cc(-c2ccc(OCCCN3CCCCCC3)cc2)cnn1-c1ccccn1
clearance [1]: 25 mL/min/kg
Ki (Histamine H3 receptor [2]): 12 nM
bioavailability [3]: 28%
Ki (Histamine H3 receptor [4]): 5.3 nM
half-life [5]: 1.8 h
Kp at 1 h [6]: 1.8

C[C@@H]1CCCN1CCCOc1ccc(-c2ccc(=O)[nH]n2)cc1 [IRDABISANT]
bioavailability [10]: 83%
Ki (Histamine H3 receptor [2]): 8.5 nM
Kp at 1 h [6]: 2.6

C[C@@H]1CCCN1CCCOc1ccc(-c2cnn(C)c(=O)c2)cc1
clearance [1]: 32 mL/min/kg
Ki (Histamine H3 receptor [2]): 5.5 nM
bioavailability [3]: 19%
Ki (Histamine H3 receptor [4]): 1.9 nM
half-life [5]: 1 h
Kp at 1 h [6]: 3.3

O=c1cc(-c2ccc(OCCCN3CCCCC3)cc2)cnn1-c1ccccn1
clearance [1]: 11 mL/min/kg
Ki (Histamine H3 receptor [2]): 16 nM
bioavailability [3]: 26%
Ki (Histamine H3 receptor [4]): 7.8 nM
half-life [5]: 1.6 h
Kp at 1 h [6]: 1.6

CC(C)n1ncc(-c2ccc(OCCCN3CCC[C@H]3C)cc2)cc1=O
clearance [1]: 12 mL/min/kg
Ki (Histamine H3 receptor [2]): 7 nM
bioavailability [3]: 1%
Ki (Histamine H3 receptor [4]): 2.7 nM
half-life [5]: 0.3 h
Kp at 1 h [6]: 5.1
